The target in the series is ATP-dependent translocase ABCB1 (Homo sapiens, UniProt P08183). In words: TP_TRANSPORTER: inhibition of Azidopine photoaffinity labelling (Azidopine: 0.4 uM, KRN5500: 400 uM) in membrane fraction from MDR1-expressing LLC-PK1 cell. The format is functional, cell membranes. The conditions noted are these: pig, llc-pk1, 400 µM.

For one compound, Activity results are on record in ChEMBL document CHEMBL2074431, “The novel anticancer drug KRN5500 interacts with, but is hardly transported by, human P-glycoprotein” (Jpn J Cancer Res, 2000).

Sequence of ATP-dependent translocase ABCB1 (P08183 whole entry): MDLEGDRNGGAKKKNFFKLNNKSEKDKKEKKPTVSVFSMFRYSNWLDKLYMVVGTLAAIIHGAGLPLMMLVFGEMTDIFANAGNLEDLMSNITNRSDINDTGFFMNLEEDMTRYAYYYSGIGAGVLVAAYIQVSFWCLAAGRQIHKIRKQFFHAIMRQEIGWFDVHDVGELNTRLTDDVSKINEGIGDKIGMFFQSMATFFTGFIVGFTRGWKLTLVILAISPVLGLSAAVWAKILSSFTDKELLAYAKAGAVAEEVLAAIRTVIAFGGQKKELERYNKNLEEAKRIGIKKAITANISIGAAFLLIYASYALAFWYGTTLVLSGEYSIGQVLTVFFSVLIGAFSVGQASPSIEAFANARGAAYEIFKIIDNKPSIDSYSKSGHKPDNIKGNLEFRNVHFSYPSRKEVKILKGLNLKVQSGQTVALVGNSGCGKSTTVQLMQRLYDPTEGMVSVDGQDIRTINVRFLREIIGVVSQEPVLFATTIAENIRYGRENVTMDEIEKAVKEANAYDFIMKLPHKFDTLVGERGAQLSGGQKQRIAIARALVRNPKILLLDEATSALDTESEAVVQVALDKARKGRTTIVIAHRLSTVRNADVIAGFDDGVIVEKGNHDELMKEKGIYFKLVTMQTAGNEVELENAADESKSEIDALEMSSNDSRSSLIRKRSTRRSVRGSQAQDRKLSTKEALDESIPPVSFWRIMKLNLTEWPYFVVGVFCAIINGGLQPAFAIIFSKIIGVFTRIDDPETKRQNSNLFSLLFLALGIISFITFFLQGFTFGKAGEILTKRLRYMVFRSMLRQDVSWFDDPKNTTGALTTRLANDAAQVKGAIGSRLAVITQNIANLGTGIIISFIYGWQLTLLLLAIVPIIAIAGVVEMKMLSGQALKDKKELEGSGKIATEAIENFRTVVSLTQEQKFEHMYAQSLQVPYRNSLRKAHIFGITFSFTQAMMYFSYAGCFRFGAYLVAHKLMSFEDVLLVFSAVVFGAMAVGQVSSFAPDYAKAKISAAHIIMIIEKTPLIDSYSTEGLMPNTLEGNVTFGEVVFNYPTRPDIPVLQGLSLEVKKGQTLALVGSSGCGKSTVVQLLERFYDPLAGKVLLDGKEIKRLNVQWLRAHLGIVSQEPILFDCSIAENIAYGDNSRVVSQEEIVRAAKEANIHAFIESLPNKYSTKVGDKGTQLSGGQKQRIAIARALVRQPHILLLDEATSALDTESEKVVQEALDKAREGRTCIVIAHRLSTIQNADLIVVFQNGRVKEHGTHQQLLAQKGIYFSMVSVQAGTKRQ

For `CCCCCCCCC/C=C/C=C/C(=O)NCC(=O)N[C@@H]1[C@@H](O)[C@@H](O)[C@@H](Nc2ncnc3[nH]cnc23)O[C@H]1[C@@H](O)CO`, the Activity result is “inhibitor [+]”.
